# Measurements: US10858413B2, “Immunoglobulins and uses thereof” (Janssen Pharmaceutica NV, priority 2016, dated 2020)
# Marks after values point to notes of the source that are not given here.
# Legend:
# PTHR1 = target: T1, PTHR1 (Homo sapiens, UniProt Q03431); test: class B GPCR cAMP assay, PTHR1; assay type: cell-based
# T1 construct: host or cells: cells of an unnamed vendor
# T1 sequence (Q03431 27-593): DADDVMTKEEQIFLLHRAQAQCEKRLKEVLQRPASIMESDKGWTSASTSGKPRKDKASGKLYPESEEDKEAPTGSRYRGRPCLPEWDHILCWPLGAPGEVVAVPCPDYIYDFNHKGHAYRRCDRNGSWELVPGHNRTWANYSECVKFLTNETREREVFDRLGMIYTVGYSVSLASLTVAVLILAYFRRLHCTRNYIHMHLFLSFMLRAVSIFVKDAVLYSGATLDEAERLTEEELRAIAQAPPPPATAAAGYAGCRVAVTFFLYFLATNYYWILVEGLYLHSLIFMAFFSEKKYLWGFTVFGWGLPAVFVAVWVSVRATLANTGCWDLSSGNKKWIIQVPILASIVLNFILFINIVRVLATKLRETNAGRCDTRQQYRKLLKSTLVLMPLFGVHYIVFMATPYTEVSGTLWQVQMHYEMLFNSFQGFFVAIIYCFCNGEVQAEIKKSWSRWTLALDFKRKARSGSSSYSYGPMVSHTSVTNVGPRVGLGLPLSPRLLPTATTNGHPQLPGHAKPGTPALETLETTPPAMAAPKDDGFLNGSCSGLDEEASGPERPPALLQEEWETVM
# Experimental: The assays were performed according to the vendor's standard operating procedures with a positive control included for each receptor tested.
# DIO mice [1] = test: OGTT (blood glucose, insulin) in DIO mice after 8 days of treatment; assay type: in vivo, mouse; conditions: 0.3 nmol/kg s.c. every day
# Experimental: (§1) Compound 1 was evaluated for its ability to reduce foot intake and body weight and improve glucose homeostasis on repeat dosing in male DIO C57B1/6 mice over a period of 8 days. Male DIO C57BL/6N mice (20 weeks of age, 14 weeks on high fat diet) were obtained from Taconic Laboratory. […] Animals were acclimated to the facility for at least one week prior to the start of the experiment.
# (§2) The day prior to dosing, mice were grouped based on individual body weights. At 3:00-4:00 pm for each of the next 8 days, animals and food intake were weighed. […] After 8 days, mice are fasted for 5 hours and then given a 2 g/kg bolus of glucose orally at t=0. At t=0, 30, 60, 90, and 120 minutes post glucose challenge blood glucose is measured and at t=0, 30, and 90 minutes blood in drawn to measure plasma insulin. […] All data are presented as the mean±SEM (FIGS. 8 and 9, and Tables 5-8).
# DIO mice [2] = test: Fed blood glucose in DIO mice after 8 days of treatment; assay type: in vivo, mouse; conditions: 0.3 nmol/kg s.c. every day
# Experimental: as §1, §2
# DIO mice [3] = test: Repeat dosing in DIO mice: daily food intake; assay type: in vivo, mouse; conditions: 0.3 nmol/kg s.c. daily
# Experimental: (§3) To control for the dosing frequency, all animals were dosed daily. Dosing frequency was determined on the basis of DIO mouse PK data for compound 2 and dulaglutide. Animals in the dulaglutide group received this drug daily. The vehicle-treated animals received vehicle daily. […] The day prior to initiating of dosing, animals were weighed and grouped by body weight. […].
# (§4) Beginning 24-hr after the first dosing, three groups of mice were pair-fed (PF) to the 1.0, 2.0, or 4.0 nmol/kg compound 2-treated animals. The amount of food in the hopper of pair-fed mice was adjusted to match the average food consumed in the previous 24 hours by mice in the compound treatment group to which they were being matched. All PF groups were dosed daily with vehicle. On the ninth day (or Day 10 for the pair-fed groups), animals were fasted for 6 hours and body weight and fasting glucose were measured. Blood was collected for measurements of insulin, FGF21 and plasma lipids. The food intake, body weight, body composition, fasting glucose, fasting insulin, fasting FGF21, and fasting plasma lipid data are shown in tables 20-26.
# [4] = Repeat dosing in DIO mice: body weight change and body composition; assay type: in vivo, mouse; conditions: 0.3 nmol/kg s.c. daily
# Experimental: as §3, §4
# DIO mice [5] = test: Repeat dosing in DIO mice: fasting glucose, insulin, FGF21, plasma lipids; assay type: in vivo, mouse; conditions: after repeated dosing, 0.3 nmol/kg s.c. daily
# Experimental: as §3, §4
# DIO mice [6] = test: Single-dose efficacy in DIO mice: food intake; conditions: single s.c. dose 0.3 nmol/kg
# DIO mice [7] = test: Single-dose efficacy in DIO mice: plasma FGF21; conditions: 26 hours after treatment, single s.c. dose 0.3 nmol/kg
# [8] = Single-dose efficacy in DIO mice: body weight change; conditions: single s.c. dose 0.3 nmol/kg, 18 hours after treatment, relative to day 0
# DIO mice [9] = test: Single-dose efficacy in DIO mice: fasting glucose, IPGTT glucose and insulin; conditions: single s.c. dose 0.3 nmol/kg
compound,measurement,setting,value
CC[C@H](C)[C@H](NC(=O)[C@H](CCC(=O)O)NC(=O)[C@H](CO)NC(=O)[C@@H](NC(=O)[C@@H](N)CO)C(C)C)C(=O)N[C@@H](CCC(N)=O)C(=O)N[C@@H](CC(C)C)C(=O)N[C@@H](CCSC)C(=O)N[C@@H](Cc1cnc[nH]1)C(=O)N[C@@H](CC(N)=O)C(=O)N[C@@H](CC(C)C)C(=O)NCC(=O)N[C@@H](CCCCN)C(=O)N[C@@H](Cc1cnc[nH]1)C(=O)N[C@@H](CC(C)C)C(=O)N[C@@H](CC(N)=O)C(=O)N[C@@H](CO)C(=O)N[C@@H](CCSC)C(=O)N[C@@H](CCC(=O)O)C(=O)N[C@@H](CCCNC(=N)N)C(=O)N[C@H](C(=O)N[C@@H](CCC(=O)O)C(=O)N[C@@H](Cc1c[nH]c2ccccc12)C(=O)N[C@@H](CC(C)C)C(=O)N[C@@H](CCCNC(=N)N)C(=O)N[C@@H](CCCCN)C(=O)N[C@@H](CCCCN)C(=O)N[C@@H](CC(C)C)C(=O)N[C@@H](CCC(N)=O)C(=O)N[C@@H](CC(=O)O)C(=O)N[C@H](C(=O)N[C@@H](Cc1cnc[nH]1)C(=O)N[C@@H](CC(N)=O)C(=O)N[C@@H](Cc1ccccc1)C(=O)O)C(C)C)C(C)C [PTH(1-34)],Curve Bottom,PTHR1,−5.9767
same,Curve Top,PTHR1,101
same,Hill,PTHR1,1.8672
Dulaglutide: GLP1R agonist (long-acting GLP-1 receptor agonist) [reference compound],blood glucose Delta AUC (OGTT),DIO mice [1],6668 ± 1846 mg/dl/120 min
same,blood glucose Total AUC (OGTT),DIO mice [1],15758 ± 1054 mg/dl/120 min
same,blood glucose during an OGTT,DIO mice [1]; 0 min after glucose challenge,76 ± 9 mg/dL
same,insulin during an OGTT,DIO mice [1]; 0 min after glucose challenge,0.6 ± 0.1 ng/mL
same,blood glucose during an OGTT,DIO mice [1]; 30 min after glucose challenge,151 ± 14 mg/dL
same,insulin during an OGTT,DIO mice [1]; 30 min after glucose challenge,1.7 ± 0.2 ng/mL
same,blood glucose during an OGTT,DIO mice [1]; 60 min after glucose challenge,174 ± 17 mg/dL
same,blood glucose during an OGTT,DIO mice [1]; 90 min after glucose challenge,104 ± 10 mg/dL
same,insulin during an OGTT,DIO mice [1]; 90 min after glucose challenge,0.7 ± 0.2 ng/mL
same,blood glucose during an OGTT,DIO mice [1]; 120 min after glucose challenge,119 ± 9 mg/dL
same,fed Blood Glucose,DIO mice [2],114 ± 13 mg/dL
same,daily food intake,DIO mice [3]; day 0,3.1 ± 0.2 grams
same,daily food intake,DIO mice [3]; day 1,1.5 ± 0.2 grams
same,daily food intake,DIO mice [3]; day 2,1.3 ± 0.2 grams
same,daily food intake,DIO mice [3]; day 3,1.7 ± 0.3 grams
same,daily food intake,DIO mice [3]; day 4,1.9 ± 0.2 grams
same,daily food intake,DIO mice [3]; day 5,2.1 ± 0.2 grams
same,daily food intake,DIO mice [3]; day 6,2.2 ± 0.2 grams
same,daily food intake,DIO mice [3]; day 7,2.3 ± 0.2 grams
same,daily food intake,DIO mice [3]; day 8,2.9 ± 0.4 grams
same,daily food intake,DIO mice [3]; day 9,2.5 ± 0.2 grams
same,percent body weight change,"[4]; day 0, relative to day 0",0.0%
same,percent body weight change,"[4]; day 1, relative to day 0",−3.7 ± 0.3%
same,percent body weight change,"[4]; day 2, relative to day 0",−6.2 ± 0.6%
same,percent body weight change,"[4]; day 3, relative to day 0",−7.8 ± 0.8%
same,percent body weight change,"[4]; day 4, relative to day 0",−9.2 ± 0.8%
same,percent body weight change,"[4]; day 5, relative to day 0",−10.1 ± 0.8%
same,percent body weight change,"[4]; day 6, relative to day 0",−10.2 ± 0.8%
same,percent body weight change,"[4]; day 7, relative to day 0",−10.7 ± 1.0%
same,percent body weight change,"[4]; day 8, relative to day 0",−11.1 ± 0.9%
same,percent body weight change,"[4]; day 9, relative to day 0",−13.1 ± 1.1%
same,body composition: Fat Mass,[4]; after repeated dosing,7.6 ± 1.1 g
same,"body composition: Fat, % of Body Weight",[4]; after repeated dosing,22.8 ± 1.2%
same,body composition: Lean Mass,[4]; after repeated dosing,22.1 ± 0.3 g
same,"body composition: Lean, % of Body Weight",[4]; after repeated dosing,61.0 ± 1.7%
same,6 hour fasting Blood Glucose,DIO mice [5],123 ± 5 mg/dL
same,6 hour fasting Plasma Insulin,DIO mice [5],1.4 ± 0.2 ng/mL
same,6 hour fasting plasma FGF21,DIO mice [5],0.5 ± 0.1 ng/mL
same,plasma Free Fatty Acids,DIO mice [5],73.2 ± 12.0 µmol/L
same,plasma Free Glycerol,DIO mice [5],0.5 ± 0.1 mmol/L
same,plasma Total cholesterol,DIO mice [5],146.1 ± 3.3 mg/dL
same,plasma Tri-glycerides,DIO mice [5],24.1 ± 2.3 mg/dL
same,food intake,DIO mice [6]; 18 hours post-dose,1.5 ± 0.1*^ grams
same,food intake,DIO mice [6]; 24 hours pre-dose,3.1 ± 0.1 grams
same,Plasma FGF21,DIO mice [7],0.8 ± 0.2 ng/mL
same,Weight Change (%),[8],−4.1 ± 0.3 %
same,6 hour fasting Blood Glucose,DIO mice [9]; 24 hours after treatment,140 ± 7 mg/dL
same,Blood Glucose Net AUC during an IPGTT,DIO mice [9]; 24 hours after treatment,8471 ± 1204
same,blood glucose during an IPGTT,"DIO mice [9]; 24 hours after treatment, 0 min",140 ± 7 mg/dL
same,blood glucose during an IPGTT,"DIO mice [9]; 24 hours after treatment, 10 min",264 ± 18 mg/dL
same,blood glucose during an IPGTT,"DIO mice [9]; 24 hours after treatment, 30 min",267 ± 22 mg/dL
same,blood glucose during an IPGTT,"DIO mice [9]; 24 hours after treatment, 60 min",228 ± 12 mg/dL
same,blood glucose during an IPGTT,"DIO mice [9]; 24 hours after treatment, 90 min",193 ± 9 mg/dL
same,Plasma Insulin,DIO mice [9]; 10 minutes post-glucose (IPGTT),1.7 ± 0.2 ng/mL
same,Plasma Insulin,DIO mice [9]; Pre-glucose (24 hours after treatment),1.6 ± 0.2 ng/mL
